Tested on: K14 mouse model of type 2 Gaucher disease
Assay: K14 mouse model of type 2 Gaucher disease
Assay type: in vivo
Text: As noted above, Gaucher Disease results from a deficiency of the lysosomal enzyme glucocerebrosidase (GC). In the most common phenotype of Gaucher disease (type 1), pathology is limited to the reticuloendothelial and skeletal systems and there are no neuropathic symptoms. See Barranger, Glucosylceramide lipidosis: Gaucher disease. In: Scriver C R B A, Sly W S, Valle D, editor. The Metabolic Basis of Inherited Disease. New York: McGraw-Hill. pp. 3635-3668 (2001). In neuropathic Gaucher disease (nGD), subdivided into type 2 and type 3 Gaucher disease, the deficiency of glucocerebrosidase (GC) causes glucosylceramide (GluCer; GL-1) and glucosylsphingosine (GluSph) to accumulate in the brain, leading to neurologic impairment. Type 2 Gaucher disease is characterized by early onset, rapid progression, extensive pathology in the viscera and central nervous system, and death usually by 2 years of age. Type 3 Gaucher disease, also known as subacute nGD, is an intermediate phenotype with varying age of onset and different degrees of severity and rates of progression. Goker-Alpan et al., The Journal of Pediatrics 143: 273-276 (2003). A recent development has produced the K14 lnl/lnl mouse model of type 2 Gaucher disease (hereinafter, the “K14 mouse”); this mouse model closely recapitulates the human disease showing ataxia, seizures, spasticity and a reduced median lifespan of only 14 days. Enquist et al., PNAS 104: 17483-17488 (2007).
As in patients with nGD, several mouse models of the disease have increased levels of GluCer and GluSph in the brain due to the deficiency in GC activity. Liu et al., PNAS 95: 2503-2508 (1998) and Nilsson, J. Neurochem 39: 709-718 (1982). The “K14” mice display a neuropathic phenotype that shares many pathologic features with type 2 Gaucher disease, such as neurodegeneration, astrogliosis, microglial proliferation, and increased levels of GluCer and GluSph in specific brain regions. Enquist et al. (2007).
Clinical management of patients affected by nGD poses a challenge for treating physicians both because of the severity of type 2 disease and the inability of the current therapies to cross the blood brain barrier (BBB). Current treatment of non-nGD relies on the intravenous delivery of recombinant human glucocerebrosidase (Imiglucerase; Cerezyme™) to replace the missing enzyme or the administration of glucosylceramide synthase inhibitors to attenuate substrate (GL-1) production. […] Current small molecule glucosylceramide synthase inhibitors in the clinic are not likely to address the neuropathic phenotypes of nGD.

## CC(C)(NC(=O)OC1CN2CCC1CC2)c1cccc(-c2ccc(F)cc2)c1 (stereo not shown) [Gz161, Quinuclidin-3-yl (2-(4′-fluoro-[1,1′-biphenyl]-3-yl)propan-2-yl)carbamate]
  brain neuropathology: reduced
  lifespan: extended
brain
  brain GluCer: reduce
  brain GluSph: reduce
